Test [1] concerns the target human CB1 receptor (hCB1) (Homo sapiens, UniProt P21554). The test is described as follows: cell-based. The class given is cell-based. The method in brief:
(§1)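 First, cells in IBMX-containing HEPES-buffered HBSS are raised to elevated cAMP with 2-8 μM NKH-477 for 30 min. Data are normalised to the forskolin and forskolin + 1 μM CP55,940 controls.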

For test [2], the target named is T1, rat CB2 receptor (rCB2) (Rattus norvegicus, UniProt Q9QZN9).
T1 sequence (Q9QZN9 1-360): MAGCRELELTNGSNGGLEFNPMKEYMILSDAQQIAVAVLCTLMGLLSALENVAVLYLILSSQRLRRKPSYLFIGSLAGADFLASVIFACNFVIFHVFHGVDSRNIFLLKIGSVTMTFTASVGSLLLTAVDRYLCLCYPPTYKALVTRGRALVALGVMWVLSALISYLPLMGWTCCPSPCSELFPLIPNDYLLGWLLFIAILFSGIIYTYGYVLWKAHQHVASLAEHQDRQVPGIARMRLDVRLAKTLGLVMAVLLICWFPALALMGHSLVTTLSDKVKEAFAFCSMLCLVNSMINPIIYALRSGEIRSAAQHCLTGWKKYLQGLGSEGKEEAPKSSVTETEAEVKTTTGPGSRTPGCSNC
Kind of test: cell-based. It counts as cell-based. The conditions noted are these: for +/− RCB2: agonist or inverse agonist at rCB2. The method in brief:
as §1

The structures appear in SMILES notation.

For orientation: EC50 means the midpoint of the concentration-response curve.

human CB1 receptor (hCB1), sequence (P21554 whole entry): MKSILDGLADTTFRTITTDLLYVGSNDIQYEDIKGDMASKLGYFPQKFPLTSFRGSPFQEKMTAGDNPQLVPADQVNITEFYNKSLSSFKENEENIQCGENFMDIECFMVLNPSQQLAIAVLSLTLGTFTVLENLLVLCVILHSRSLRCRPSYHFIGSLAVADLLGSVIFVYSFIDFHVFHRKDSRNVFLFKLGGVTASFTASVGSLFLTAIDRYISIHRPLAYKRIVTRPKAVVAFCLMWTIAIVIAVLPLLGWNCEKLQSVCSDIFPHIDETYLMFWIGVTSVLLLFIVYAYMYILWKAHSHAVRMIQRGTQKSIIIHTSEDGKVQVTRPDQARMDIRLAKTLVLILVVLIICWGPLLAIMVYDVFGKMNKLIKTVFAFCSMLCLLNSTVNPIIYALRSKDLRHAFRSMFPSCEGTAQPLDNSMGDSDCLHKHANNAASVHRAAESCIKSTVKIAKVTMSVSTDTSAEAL

With `CNC(=O)[C@@H](NC(=O)c1nc(-c2ccccc2)n2c1CN(C)CC2)C(C)C` [Compound 206, (S)-7-methyl-N-(3-methyl-1-(methylamino)-1-oxobutan-2-yl)-3-phenyl-5,6,7,8-tetrahydroimidazo[1,5-a]pyrazine-1-carboxamide], the EC50 in test [1] was > 10 µM. In addition, the “+/− RCB2” value in test [2] was “+”.

Turning to `CNC(=O)[C@@H](NC(=O)c1nc(-c2ccccc2)n2c1CN(S(=O)(=O)c1ccccc1[N+](=O)[O-])CC2)C(C)(C)C` [Compound 97, (S)-N-(3,3-dimethyl-1-(methylamino)-1-oxobutan-2-yl)-7-(2-nitrophenylsulfonyl)-3-phenyl-5,6,7,8-tetrahydroimidazo[1,5-a]pyrazine-1-carboxamide], the 50% effective concentration (EC50) in test [1] was > 10 µM. Also, the “+/− RCB2” value in test [2] was “−”.

For the molecule `CNC(=O)c1cc(-c2nc(C(=O)N[C@H](C(=O)NC)C(C)(C)C)c3n2CCCN(C)C3)ccc1F` [Compound 406, (S)-N-(3,3-dimethyl-1-(methylamino)-1-oxobutan-2-yl)-3-(4-fluoro-3-(methylcarbamoyl)phenyl)-8-methyl-6,7,8,9-tetrahydro-5H-imidazo[1,5-a][1,4]diazepine-1-carboxamide], in test [1], the concentration for a half-maximal effect (EC50) is > 10 µM. Also, the “+/− RCB2” value in test [2] was “+”.

As for `CC(=O)N1CCn2c(-c3ccccc3)nc(C(=O)N[C@@H](C)c3ccccc3)c2C1` [Compound 172, (S)-7-acetyl-3-phenyl-N-(1-phenylethyl)-5,6,7,8-tetrahydroimidazo[1,5-a]pyrazine-1-carboxamide], the concentration giving a half-maximal response (EC50) in test [1] is > 10 µM. Also, the “+/− RCB2” value in test [2] is reported as “+”.

Consider `CNC(=O)[C@@H](NC(=O)c1nc(-c2ccc3c(c2)OCO3)n2c1CN(C)CCC2)C(C)(C)C` [Compound 341, (S)-3-(benzo[d][1,3]dioxol-5-yl)-N-(3,3-dimethyl-1-(methylamino)-1-oxobutan-2-yl)-8-methyl-6,7,8,9-tetrahydro-5H-imidazo[1,5-a][1,4]diazepine-1-carboxamide], for which the EC50 in test [1] was > 10 µM. In addition, in test [2], the “+/− RCB2” value is listed as “−”.

Turning to `C[C@H](NC(=O)c1nc(-c2ccccc2)n2c1CNCC2)C(C)(C)C` [Compound 27, (s)-N-(3,3-dimethylbutan-2-yl)-3-phenyl-5,6,7,8-tetrahydroimidazo[1,5-a]pyrazine-1-carboxamide], the EC50 in test [1] and in test [2] was > 10 µM each time.

Regarding `CCCCCCc1nc(C(=O)N[C@H](C(=O)NC)C(C)(C)C)c2n1CCCN(C)C2` [Compound 491, (S)-N-(3,3-dimethyl-1-(methylamino)-1-oxobutan-2-yl)-3-hexyl-8-methyl-6,7,8,9-tetrahydro-5H-imidazo[1,5-a][1,4]diazepine-1-carboxamide], the EC50 in test [1] was > 10 µM. The “+/− RCB2” value in test [2] is reported as “+”.

As for `CNC(=O)[C@@H](NC(=O)c1nc(C2=CCCCC2)n2c1CN(C)CCC2)C(C)(C)C` [Compound 396, (S)-3-cyclohexenyl-N-(3,3-dimethyl-1-(methylamino)-1-oxobutan-2-yl)-8-methyl-6,7,8,9-tetrahydro-5H-imidazo[1,5-a][1,4]diazepine-1-carboxamide], the EC50 in test [1] is > 10 µM. Moreover, the “+/− RCB2” value in test [2] is listed as “+”.

For `CNC(=O)[C@@H](NC(=O)c1nc(-c2ccc(OC(F)(F)F)cc2)n2c1CN(C)CCC2)C(C)(C)C` [Compound 339, (S)-N-(3,3-dimethyl-1-(methylamino)-1-oxobutan-2-yl)-8-methyl-3-(4-(trifluoromethoxy)phenyl)-6,7,8,9-tetrahydro-5H-imidazo[1,5-a][1,4]diazepine-1-carboxamide], in test [1], the EC50 is > 10 µM. In addition, in test [2], the “+/− RCB2” value is “−”.

For `CNC(=O)[C@@H](NC(=O)c1nc(-c2ccccc2)n2c1CN(C(=O)NC(C)(C)C)CC2)C(C)(C)C` [Compound 192, (S)-N7-tert-butyl-N1-(3,3-dimethyl-1-(methylamino)-1-oxobutan-2-yl)-3-phenyl-5,6-dihydroimidazo[1,5-a]pyrazine-1,7(8H)-dicarboxamide], in test [1], the EC50 was > 10 µM. The “+/− RCB2” value in test [2] is recorded as “−”.

The values above are taken from patent US7517874B2 (priority 2007, dated 2009).
